# Assay results as given in patent US8835466B2, “Synthesis and uses of pyroglutamic acid derivatives” (Prodimed, S.A., priority 2006, dated 2014).
# Assays:
# [1] = system: CT26.wt (colon carcinoma); assay: Effect of isomer 4 (9d) on tumour growth, CT26.wt (Example 10); format: in vivo; details: CT26.wt (high dose colon carcinoma); Balbc/cByl mice; 250 ng/mice i.p. days 6, 7 and 14
# Protocol: The following assays were made in order to check the effect of isomer 4 (9d) on different tumours following methods and materials analogous to those used in examples 8 and 9, In all cases sterile physiologic saline (Grifols, Barcelona, Spain) was used as placebo. Isomer 4 (9d) was tested at the dose levels indicated in Table 13 on days 6, 7 and 14 after tumour inoculation. In all cases the vehicle was physiologic saline and the treatments were given by intraperitoneal route. The volume inoculated was 0.2 mL/animal.
# [2] = system: KLN 205 cells (lung cell carcinoma); assay: Effect of 9d and Cisplatin on KLN 205 tumour growth after subcutaneous, intradermal or intramuscular inoculation (Example 12); format: in vivo, DBA/2 mice
# Protocol: This was carried out by measuring two perpendicular diameters (d1/d2) with a calliper. These measures were used to obtain both tumour surface and volume: […] Results were expressed as single values and/or as the mean±SD or median from each experimental group. This assay was made in order to check the effect on in vivo tumour growth in mice challenged with KLN 205 cells. Tumours where established by subcutaneous, intradermal or intramuscular inoculation. The effect of the combination of cisplatin and/or Isomer (9d) was compared with placebo in mice challenged intradermally. […] KLN 205 is a lung cell carcinoma originated in DBA/2 mouse strain, and therefore syngeneic in mice with DBA/2 genetic background (Kaneko T and […]. Growth characteristics and drug responses of a murine lung carcinoma in vitro and in vivo. Cancer Research. 38: 2084-2090; 1978). KLN 205 cells (CLS, Eppelheim, Germany) were maintained in vitro by serial passages every 3-4 days. […] Louis, Mo., USA) by seeding 5×10^6 cells onto 75 cm^2 culture flasks. Subcultures were carried out by collecting detached cells after treatment with trypsin-EDTA (Sigma, St. Louis, Mo., USA). Tumour cells, collected from 48 hour cultures, were used as source of KLN 205 cells for the studies described below. […] Tumours were established by subcutaneous and intradermal inoculation in the right hind flank, and intramuscular in the right hind leg. Mice (DBA/2) were inoculated with 0.05 mL containing 2×10^5 viable KLN 205 cells. The day of subcutaneous, intradermal and intramuscular inoculation will be considered Day 0 of the test. A case-control study was performed with treated and control mice in order to determine whether differences between placebo, 9d, Cisplatin or 9d+Cisplatin were present. The data obtained (tumour surface and volume) were tested for Normal distribution within the groups (Kolmogorov Smirnov test p<0.05). […] The U-test of Mann Withney was chosen for being one of the better known non-parametrical tests, anyway, results for this test are equivalent both to those of Wilcoxon's sum of ranges and Kruskal-Wallis two-groups test.
# [3] = Group A2 (9d 250 ng/mouse), day 0 after tumour inoculation
# [4] = Group A2 (9d 250 ng/mouse), day 10 after tumour inoculation
# [5] = Group A2 (9d 250 ng/mouse), day 13 after tumour inoculation
# [6] = Group A2 (9d 250 ng/mouse), day 17 after tumour inoculation
# [7] = Group A2 (9d 250 ng/mouse), day 20 after tumour inoculation
# [8] = Group A2 (9d 250 ng/mouse), day 24 after tumour inoculation
# [9] = Group A2 (9d 250 ng/mouse), day 27 after tumour inoculation
# [10] = Group A2 (9d 250 ng/mouse), day 31 after tumour inoculation
# [11] = Group C2 (9d 250 ng/mouse), day 0 after tumour inoculation
# [12] = Group C2 (9d 250 ng/mouse), day 10 after tumour inoculation
# [13] = Group C2 (9d 250 ng/mouse), day 13 after tumour inoculation
# [14] = Group C2 (9d 250 ng/mouse), day 17 after tumour inoculation
# [15] = Group C2 (9d 250 ng/mouse), day 20 after tumour inoculation
# [16] = Group C2 (9d 250 ng/mouse), day 24 after tumour inoculation
# [17] = Group C2 (9d 250 ng/mouse), day 27 after tumour inoculation
# [18] = Group C2 (9d 250 ng/mouse), day 31 after tumour inoculation
# [19] = Group C2 (9d 250 ng/mouse), day 34 after tumour inoculation
# [20] = Group C2 (9d 250 ng/mouse), day 38 after tumour inoculation
# [21] = Groups B2-B4 (9d 250 ng, Cisplatin 65 μg, or both), day 0 after tumour inoculation
# [22] = Groups B2-B4 (9d 250 ng, Cisplatin 65 μg, or both), day 10 after tumour inoculation
# [23] = Groups B2-B4 (9d 250 ng, Cisplatin 65 μg, or both), day 13 after tumour inoculation
# [24] = Groups B2-B4 (9d 250 ng, Cisplatin 65 μg, or both), day 17 after tumour inoculation
# [25] = Groups B2-B4 (9d 250 ng, Cisplatin 65 μg, or both), day 20 after tumour inoculation
# [26] = Groups B2-B4 (9d 250 ng, Cisplatin 65 μg, or both), day 24 after tumour inoculation
# [27] = Groups B2-B4 (9d 250 ng, Cisplatin 65 μg, or both), day 27 after tumour inoculation
# [28] = Groups B2-B4 (9d 250 ng, Cisplatin 65 μg, or both), day 31 after tumour inoculation
smiles,measurement,setting,value
"Br.N[C@]1(C[n+]2ccccc2)C[C@H](C(=O)O)NC1=O.[Br-] (single isomer, unassigned; isomer 4) [isomer 4, 3S,5R-1-(3-Amino-5-carboxy-2-oxopyrrolidin-3-ylmethyl)pyridinium bromide hidrobromide]",Tumour growth inhibition?,[1],YES
same,SURFACE Overall values (Mean),[2]; [3],0 mm^2
same,SURFACE Overall values (Median),[2]; [3],0 mm^2
same,VOLUME Overall values (Mean),[2]; [3],0 mm^3
same,VOLUME Overall values (Median),[2]; [3],0 mm^3
same,SURFACE Overall values (Mean),[2]; [4],11.4 mm^2
same,SURFACE Overall values (Median),[2]; [4],12.5 mm^2
same,VOLUME Overall values (Mean),[2]; [4],22 mm^3
same,VOLUME Overall values (Median),[2]; [4],22.75 mm^3
same,SURFACE Overall values (Mean),[2]; [5],27.4 mm^2
same,SURFACE Overall values (Median),[2]; [5],30 mm^2
same,VOLUME Overall values (Mean),[2]; [5],75.5 mm^3
same,VOLUME Overall values (Median),[2]; [5],75 mm^3
same,SURFACE Overall values (Mean),[2]; [6],49 mm^2
same,SURFACE Overall values (Median),[2]; [6],45 mm^2
same,VOLUME Overall values (Mean),[2]; [6],171.6 mm^3
same,VOLUME Overall values (Median),[2]; [6],135 mm^3
same,SURFACE Overall values (Mean),[2]; [7],74.4 mm^2
same,SURFACE Overall values (Median),[2]; [7],70 mm^2
same,VOLUME Overall values (Mean),[2]; [7],304.2 mm^3
same,VOLUME Overall values (Median),[2]; [7],245 mm^3
same,SURFACE Overall values (Mean),[2]; [8],117.4 mm^2
same,SURFACE Overall values (Median),[2]; [8],118.5 mm^2
same,VOLUME Overall values (Mean),[2]; [8],554.9 mm^3
same,VOLUME Overall values (Median),[2]; [8],506.25 mm^3
same,SURFACE Overall values (Mean),[2]; [9],149.3 mm^2
same,SURFACE Overall values (Median),[2]; [9],159 mm^2
same,VOLUME Overall values (Mean),[2]; [9],765.05 mm^3
same,VOLUME Overall values (Median),[2]; [9],800 mm^3
same,SURFACE Overall values (Mean),[2]; [10],179.2 mm^2
same,SURFACE Overall values (Median),[2]; [10],186 mm^2
same,VOLUME Overall values (Mean),[2]; [10],1020 mm^3
same,VOLUME Overall values (Median),[2]; [10],1058.75 mm^3
same,SURFACE Overall values (Mean),[2]; [11],0 mm^2
same,SURFACE Overall values (Median),[2]; [11],0 mm^2
same,SURFACE Overall values (Mean),[2]; [12],0.06 mm^2
same,SURFACE Overall values (Median),[2]; [12],0.03 mm^2
same,SURFACE Overall values (Mean),[2]; [13],0.18 mm^2
same,SURFACE Overall values (Median),[2]; [13],0.17 mm^2
same,SURFACE Overall values (Mean),[2]; [14],0.37 mm^2
same,SURFACE Overall values (Median),[2]; [14],0.315 mm^2
same,SURFACE Overall values (Mean),[2]; [15],0.89 mm^2
same,SURFACE Overall values (Median),[2]; [15],0.93 mm^2
same,SURFACE Overall values (Mean),[2]; [16],2.48 mm^2
same,SURFACE Overall values (Median),[2]; [16],1.83 mm^2
same,SURFACE Overall values (Mean),[2]; [17],6.7 mm^2
same,SURFACE Overall values (Median),[2]; [17],6.94 mm^2
same,SURFACE Overall values (Mean),[2]; [18],13.61 mm^2
same,SURFACE Overall values (Median),[2]; [18],12.26 mm^2
same,SURFACE Overall values (Mean),[2]; [19],29.17 mm^2
same,SURFACE Overall values (Median),[2]; [19],24.34 mm^2
same,SURFACE Overall values (Mean),[2]; [20],41.53 mm^2
same,SURFACE Overall values (Median),[2]; [20],37.56 mm^2
same,SURFACE Overall values (Mean),[2]; [21],0 mm^2
same,SURFACE Overall values (Median),[2]; [21],0 mm^2
same,VOLUME Overall values (Mean),[2]; [21],0 mm^3
same,VOLUME Overall values (Median),[2]; [21],0 mm^3
same,SURFACE Overall values (Mean),[2]; [22],14.3 mm^2
same,SURFACE Overall values (Median),[2]; [22],12.5 mm^2
same,VOLUME Overall values (Mean),[2]; [22],28.85 mm^3
same,VOLUME Overall values (Median),[2]; [22],22.75 mm^3
same,SURFACE Overall values (Mean),[2]; [23],27.9 mm^2
same,SURFACE Overall values (Median),[2]; [23],25 mm^2
same,VOLUME Overall values (Mean),[2]; [23],74.95 mm^3
same,VOLUME Overall values (Median),[2]; [23],62.5 mm^3
same,SURFACE Overall values (Mean),[2]; [24],46.3 mm^2
same,SURFACE Overall values (Median),[2]; [24],42 mm^2
same,VOLUME Overall values (Mean),[2]; [24],150.05 mm^3
same,VOLUME Overall values (Median),[2]; [24],126 mm^3
same,SURFACE Overall values (Mean),[2]; [25],71.2 mm^2
same,SURFACE Overall values (Median),[2]; [25],63.5 mm^2
same,VOLUME Overall values (Mean),[2]; [25],280.6 mm^3
same,VOLUME Overall values (Median),[2]; [25],232.75 mm^3
same,SURFACE Overall values (Mean),[2]; [26],107.8 mm^2
same,SURFACE Overall values (Median),[2]; [26],95 mm^2
same,VOLUME Overall values (Mean),[2]; [26],496.8 mm^3
same,VOLUME Overall values (Median),[2]; [26],425.25 mm^3
same,SURFACE Overall values (Mean),[2]; [27],141.7 mm^2
same,SURFACE Overall values (Median),[2]; [27],128 mm^2
same,VOLUME Overall values (Mean),[2]; [27],744.75 mm^3
same,VOLUME Overall values (Median),[2]; [27],608.5 mm^3
same,SURFACE Overall values (Mean),[2]; [28],177.1 mm^2
same,SURFACE Overall values (Median),[2]; [28],162.5 mm^2
same,VOLUME Overall values (Mean),[2]; [28],1029.35 mm^3
same,VOLUME Overall values (Median),[2]; [28],885.75 mm^3
same,"Differences in intradermal KLN 205 tumour growth rate vs. placebo, in words","[2]; intradermal inoculation, Mann-Whitney U test",not differences
same,"Intradermal KLN 205 tumour growth vs. placebo, tendency in words","[2]; intradermal inoculation, surface or volume, all days scored after day 17th",significant tendency
same,"Differences in intramuscular KLN 205 tumour growth rate vs. placebo, in words","[2]; intramuscular inoculation, Mann-Whitney U test",not differences
same,"Inhibition of the in vivo growth of subcutaneous KLN 205 cells, in words",[2]; subcutaneous inoculation,inhibit the in vivo growth
same,"Differences in subcutaneous KLN 205 tumour growth rate vs. placebo, statistical significance p (Mann-Whitney U test)","[2]; subcutaneous inoculation, surface or volume, all days scored after the day 20th",< 0.05
